Measured values taken from patent publication US10226448B2, “3-(1H-pyrrolo[3,2-C]pyridin-2-yl)-1H-pyrazolo[3,4-B]pyridines and therapeutic uses thereof” (Samumed, LLC, priority 2015, dated 2019).

Assays:
Format in all cases: cell-based
SW480 colon cancer cells = experiment: Cell viability assay (CellTiter-Blue) in SW480 colon cancer cells; conditions: Homo sapiens; for EC50: 96 h, SW480 cell viability, four days, CellTiter-Blue; for inhibition at 10 µM: SW480, read-out: percent inhibition at 10 μM
How it was run: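 Fluorescence from resazurin reduced to resorufin by metabolically active cells was the read-out, taken after ~3 h with CellTiter-Blue.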

IL-6 in THP-1 cells = experiment: IL-6 inhibition in LPS-stimulated THP-1 human monocyte cells (HTRF); conditions: for EC50: IL-6 inhibition, LPS-stimulated THP-1 cells, HTRF, 10-point dose-response starting from 10 μM; for inhibition at 10 µM: THP-1, read-out: percentage in parentheses beside EC50 >10
How it was run: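 THP-1 cells were serum-reduced (1% FBS, 24 h), plated at 5000 cells/well with compound for 2 h at 37 °C, then stimulated 22 h with 500 ng/mL LPS. Secreted IL-6 was quantified by HTRF (665/620 nm ratio). Signals were normalised to DMSO, and EC50 was fitted by four-parameter nonlinear regression.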

[1] = tested on: Wnt activity (Sp5-Luc reporter, TCF/LEF binding sites) in SW480 colon carcinoma cells; experiment: Wnt activity screening assay: Sp5-Luc reporter gene assay in SW480 cells; conditions: Homo sapiens; for EC50: Sp5-Luc reporter, SW480 cells, overnight incubation; for inhibition at 10 µM: SW480, read-out: percent inhibition at 10 μM
How it was run: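 SW480 cells stably carrying a luciferase reporter under a human Sp5 promoter with eight TCF/LEF sites, plated at 4,000 cells/well in 1% FBS medium. Luminescence read with BrightGlo, normalized to DMSO-treated cells; EC50 from four-parameter variable-slope nonlinear regression.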

[2] = tested on: LL29 cells (primary human fibroblasts derived from IPF patients), α-smooth muscle actin; experiment: Inhibition of the fibrotic process: αSMA staining in TGF-β1 treated primary human fibroblasts from IPF patients (LL29 cells); conditions: Fibroblast; for EC50: 96 h, LL29 cells, TGF-β1 20 ng/mL, 4 days, % αSMA positive cells; for inhibition at 10 µM: read-out: percent inhibition at 10 μM
How it was run: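 Read-out after 4-day incubation: αSMA staining with 1 μM SYTOX green nuclear counterstain (30 min, room temperature). Cells were LL29 primary fibroblasts from IPF patients, in 1% FBS F12, exposed to TGF-β1 with test compound, referenced to TGF-β1/DMSO control wells.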

[3] = tested on: primary human mesenchymal stem cells (hMSCs); experiment: Induction of chondrogenesis in primary human mesenchymal stem cells (chondrogenic nodules, Rhodamine B / Nile Red); conditions: 6 days; for EC50: concentration required to induce 50% levels of chondrogenesis vs TGF-β3, read-out: Conc (nM) of 50% TGF-β3 activity; for Emax: relative to TGF-β3 (10 ng/mL) positive control, read-out: Max. Activity as % TGF-β3 activity
Excerpt: Representative compounds were screened using primary human mesenchymal stem cells (hMSCs) to determine their ability to induce chondrogenesis (process by which cartilage is developed).
Human Mesenchymal Stem Cell Culture: Primary human mesenchymal stem cells (hMSCs) were purchased from Lonza (Walkersville, Md.) and expanded in Mesenchymal Stem Cell Growth Media (Lonza). Cells between passage 3 and 6 were used for the experiments.
To image chondrogenic nodules, the cells were fixed using 4% formaldehyde (Electron Microscopy Sciences), and stained with 2 μg/mL Rhodamine B (Sigma-Aldrich) and 20 μM Nile Red (Sigma-Aldrich) [Johnson K., et. al, A Stem Cell-Based Approach to Cartilage Repair, Science, (2012). […] Number of nodules in each well was normalized to the average of 3 DMSO treated wells on the same plate using Excel (Microsoft Inc.). The normalized averages (fold change over DMSO) of 3 replicate wells for each compound concentration were calculated. Due to solubility limitations of some of the compounds, curve fitting was incomplete leading to inaccurate EC50 determinations.
Using TGF-β3 as a positive control, the concentration of representative compounds required to induce 50% levels of chondrogenesis is reported. In addition, the maximum activity of each compound and the respective dose that each compound reached maximum chondrogenesis activity is reported.

| Compound | EC50 (SW480 colon cancer cells) | EC50 (IL-6 in THP-1 cells) | EC50 [1] | EC50 [3] | EC50 [2] | Emax [3] | inhibition at 10 µM [2] | inhibition at 10 µM (SW480 colon cancer cells) | inhibition at 10 µM [1] | inhibition at 10 µM (IL-6 in THP-1 cells) |
| --- | --- | --- | --- | --- | --- | --- | --- | --- | --- | --- |
| CC(C)CC(=O)Nc1cncc(-c2cnc3[nH]nc(-c4cc5c(N6CCN(C)CC6)nccc5[nH]4)c3c2)c1 [Compound 226, 3-Methyl-N-(5-(3-(4-(4-methylpiperazin-1-yl)-1H-pyrrolo[3,2-c]pyridin-2-yl)-1H-pyrazolo[3,4-b]pyridin-5-yl)pyridin-3-yl)butanamide] | > 10000 nM | 141 nM | 3410 nM | – | > 10000 nM | 99% | 0% | 57.6% | – | – |
| CN1CCN(c2nccc3[nH]c(-c4n[nH]c5ncc(-c6cncc(N)c6)cc45)cc23)CC1 [Compound 227, 5-(3-(4-(4-Methylpiperazin-1-yl)-1H-pyrrolo[3,2-c]pyridin-2-yl)-1H-pyrazolo[3,4-b]pyridin-5-yl)pyridin-3-amine] | > 10000 nM | 707 nM | > 10000 nM | – | > 10000 nM | 18% | 0% | 14.4% | 28.1% | – |
| CC(C)C(=O)Nc1cncc(-c2cnc3[nH]nc(-c4cc5c(N6CCN(C)CC6)nccc5[nH]4)c3c2)c1 [Compound 233, N-(5-(3-(4-(4-Methylpiperazin-1-yl)-1H-pyrrolo[3,2-c]pyridin-2-yl)-1H-pyrazolo[3,4-b]pyridin-5-yl)pyridin-3-yl)isobutyramide] | > 10000 nM | 611 nM | > 10000 nM | 30 nM | > 10000 nM | 62% | 34% | 10.7% | 19.5% | – |
| CN1CCN(c2nccc3[nH]c(-c4n[nH]c5ncc(-c6cncc(NC(=O)c7ccccc7)c6)cc45)cc23)CC1 [Compound 235, N-(5-(3-(4-(4-Methylpiperazin-1-yl)-1H-pyrrolo[3,2-c]pyridin-2-yl)-1H-pyrazolo[3,4-b]pyridin-5-yl)pyridin-3-yl)benzamide] | > 10000 nM | 6980 nM | 3240 nM | – | 891 nM | 63% | – | 19.1% | – | – |
| CN1CCN(c2nccc3[nH]c(-c4n[nH]c5ncc(-c6cncc(NC(=O)C7CCCC7)c6)cc45)cc23)CC1 [Compound 246, N-(5-(3-(4-(4-Methylpiperazin-1-yl)-1H-pyrrolo[3,2-c]pyridin-2-yl)-1H-pyrazolo[3,4-b]pyridin-5-yl)pyridin-3-yl)cyclopentane carboxamide] | > 10000 nM | 2150 nM | > 10000 nM | – | 6460 nM | 30% | – | 15.4% | 43% | – |
| CCC(=O)Nc1cncc(-c2cnc3[nH]nc(-c4cc5cnccc5[nH]4)c3c2)c1 [Compound 253, N-(5-(3-(1H-Pyrrolo[3,2-c]pyridin-2-yl)-1H-pyrazolo[3,4-b]pyridin-5-yl)pyridin-3-yl)propionamide] | > 10000 nM | 1000 nM | 960 nM | – | 3710 nM | 17% | – | 50.3% | – | – |
| O=C(Nc1cncc(-c2cnc3[nH]nc(-c4cc5cnccc5[nH]4)c3c2)c1)c1ccccc1 [Compound 263, N-(5-(3-(1H-Pyrrolo[3,2-c]pyridin-2-yl)-1H-pyrazolo[3,4-b]pyridin-5-yl)pyridin-3-yl)benzamide] | > 10000 nM | > 10000 nM | > 10000 nM | 30 nM | > 10000 nM | 70% | 0% | 24.6% | 65.5% | 30% |

These reach a lower EC50 (SW480 colon cancer cells). Values come first.

| EC50 (SW480 colon cancer cells) | EC50 (IL-6 in THP-1 cells) | EC50 [1] | EC50 [3] | Compound | EC50 [2] | Emax [3] | inhibition at 10 µM [2] | inhibition at 10 µM (SW480 colon cancer cells) | inhibition at 10 µM [1] | inhibition at 10 µM (IL-6 in THP-1 cells) |
| --- | --- | --- | --- | --- | --- | --- | --- | --- | --- | --- |
| 6710 nM | 2540 nM | 3850 nM | – | O=C(Nc1cncc(-c2cnc3[nH]nc(-c4cc5c(N6CCCCC6)nccc5[nH]4)c3c2)c1)C1CC1 [Compound 188, N-(5-(3-(4-(Piperidin-1-yl)-1H-pyrrolo[3,2-c]pyridin-2-yl)-1H-pyrazolo[3,4-b]pyridin-5-yl)pyridin-3-yl)cyclopropanecarboxamide] | > 10000 nM | 42% | 0% | – | – | – |
| 4030 nM | 2860 nM | 1470 nM | – | CCCCC(=O)Nc1cncc(-c2cnc3[nH]nc(-c4cc5cnccc5[nH]4)c3c2)c1 [Compound 271, N-(5-(3-(1H-Pyrrolo[3,2-c]pyridin-2-yl)-1H-pyrazolo[3,4-b]pyridin-5-yl)pyridin-3-yl)pentanamide] | 4100 nM | 31% | – | – | – | – |
| 3800 nM | 3280 nM | > 10000 nM | – | CN1CCN(c2nccc3[nH]c(-c4n[nH]c5ncc(-c6cncc(CN7CCCCC7)c6)cc45)cc23)CC1 [Compound 239, 3-(4-(4-Methylpiperazin-1-yl)-1H-pyrrolo[3,2-c]pyridin-2-yl)-5-(5-(piperidin-1-ylmethyl)pyridin-3-yl)-1H-pyrazolo[3,4-b]pyridine] | > 10000 nM | 24% | 28.8% | – | 55% | – |
| 3350 nM | 1020 nM | 867 nM | – | CCCC(=O)Nc1cncc(-c2cnc3[nH]nc(-c4cc5cnccc5[nH]4)c3c2)c1 [Compound 269, N-(5-(3-(1H-Pyrrolo[3,2-c]pyridin-2-yl)-1H-pyrazolo[3,4-b]pyridin-5-yl)pyridin-3-yl)butyramide] | 2260 nM | 100% | – | – | – | – |
| 1630 nM | > 10000 nM | 3760 nM | 10 nM | CN(C)c1cncc(-c2cnc3[nH]nc(-c4cc5cnccc5[nH]4)c3c2)c1 [Compound 259, 5-(3-(1H-Pyrrolo[3,2-c]pyridin-2-yl)-1H-pyrazolo[3,4-b]pyridin-5-yl)-N,N-dimethylpyridin-3-amine] | 1430 nM | 80% | – | – | – | 20.1% |
| 1430 nM | 2260 nM | 1330 nM | – | CC(C)(C)CC(=O)Nc1cncc(-c2cnc3[nH]nc(-c4cc5c(N6CCCCC6)nccc5[nH]4)c3c2)c1 [Compound 184, 3,3-Dimethyl-N-(5-(3-(4-(piperidin-1-yl)-1H-pyrrolo[3,2-c]pyridin-2-yl)-1H-pyrazolo[3,4-b]pyridin-5-yl)pyridin-3-yl)butanamide] | 773 nM | 84% | – | – | – | – |
| 1240 nM | 1560 nM | 1540 nM | – | c1cc2[nH]c(-c3n[nH]c4ncc(-c5cncc(CN6CCCCC6)c5)cc34)cc2cn1 [Compound 267, 5-(5-(Piperidin-1-ylmethyl)pyridin-3-yl)-3-(1H-pyrrolo[3,2-c]pyridin-2-yl)-1H-pyrazolo[3,4-b]pyridine] | 1850 nM | 40% | – | – | – | – |
| 1100 nM | 683 nM | 605 nM | – | CC(C)(C)CC(=O)Nc1cncc(-c2cnc3[nH]nc(-c4cc5cnccc5[nH]4)c3c2)c1 [Compound 268, N-(5-(3-(1H-Pyrrolo[3,2-c]pyridin-2-yl)-1H-pyrazolo[3,4-b]pyridin-5-yl)pyridin-3-yl)-3,3-dimethylbutanamide] | 3350 nM | 7% | – | – | – | – |
| 827 nM | 4800 nM | 3850 nM | 900 nM | c1cc2[nH]c(-c3n[nH]c4ncc(-c5cncc(CN6CCCCC6)c5)cc34)cc2c(N2CCCCC2)n1 [Compound 183, 3-(4-(Piperidin-1-yl)-1H-pyrrolo[3,2-c]pyridin-2-yl)-5-(5-(piperidin-1-ylmethyl)pyridin-3-yl)-1H-pyrazolo[3,4-b]pyridine] | 1220 nM | 62% | – | – | – | – |
| 356 nM | 218 nM | 251 nM | – | c1cncc(-c2cnc3[nH]nc(-c4cc5cnccc5[nH]4)c3c2)c1 [Compound 256, 5-(Pyridin-3-yl)-3-(1H-pyrrolo[3,2-c]pyridin-2-yl)-1H-pyrazolo[3,4-b]pyridine] | 200 nM | 54% | – | – | – | – |
